# Assay results: US20140200144A1, “TREATMENT OF CROPS WITH A LOWER ALKYL N[…] ALTER CELL CYCLE AND WATER REGULATION” (1,4 GROUP, INC., priority 2013, published 2014)
# Assays:
# potato meristems = experiment: 3H-thymidine incorporation into DNA of meristems from DMN-treated tubers; type: cell-based, potato (Russet Burbank); conditions: for Thymidine incorporation (labeled thymidine taken up incorporated into DNA): meristems from tubers treated with DMN 3 days at 20° C.
# Method: On the day of treatment, tubers were transferred from 3° to 20° C. and were immediately washed in running tap water. After drying at room temperature in the dark, the tubers were placed into 4 L airtight containers. A beaker containing about 5 g of activated charcoal was placed in the chamber containing the control tubers prior to sealing (Control). DMN (0.15 mL liquid) was placed on cotton wool in a beaker and sealed in the treatment chamber (DMN3 days). The chambers were incubated in the dark at 20° C. for three days. At this time tubers were removed and the lateral meristems were isolated using a curette with the aid of a dissecting microscope. Either used fresh (thymidine incorporation) or immediately frozen in liquid nitrogen and stored at −80° C., as previously described (Campbell et al., 1996). One group of DMN-treated tubers was incubated for a further two days in air (dark, 20° C.) prior to meristem isolation (DMN3 days+2). Samples were also collected from untreated non-dormant buds at day 0 immediately after removal from 3° C. storage; henceforth referred to as eco-dormant (Lang et al. 1987)
# Freshly excised meristems were washed with deionized water and groups of 20 buds were incubated on 1 mL of buffer (10 mM Mes/KOH; pH 5.7) containing 0.9 μCi of ^3H-thymidine (60 μCi/μmole; American Radiolabeled Chemicals Inc., St. Louis, Mo.). The meristems were incubated on an oscillating shaker (100 rpm) at room temperature in the dark. After three hours, meristems were removed from the incubation media, washed extensively with deionized water followed by two washes with incubation buffer containing 5 mM unlabeled thymidine, blotted dry, frozen in liquid nitrogen, and stored at −80° C. To determine incorporation, the frozen meristems were homogenized in 1 mL ice-cold 10% (w/v) TCA. After standing on ice for 3-4 hours, the samples were vigorously mixed. An aliquot was removed and placed in a scintillation vial to determine total uptake. A second equal aliquot was removed and placed on a microfiber filter (GF/C; Whatman). […]
# [1] = system: potato meristem transcripts; experiment: QT-PCR analysis of potato meristem transcripts; type: cell-based, potato (Russet Burbank); conditions: DMN for three days, vs control
# Method: On the day of treatment, tubers were transferred from 3° to 20° C. and were immediately washed in running tap water. After drying at room temperature in the dark, the tubers were placed into 4 L airtight containers. A beaker containing about 5 g of activated charcoal was placed in the chamber containing the control tubers prior to sealing (Control). DMN (0.15 mL liquid) was placed on cotton wool in a beaker and sealed in the treatment chamber (DMN3 days). The chambers were incubated in the dark at 20° C. for three days. At this time tubers were removed and the lateral meristems were isolated using a curette with the aid of a dissecting microscope. […]
# A set of transcripts was selected for further analysis to confirm the microarray data and to determine the possible cell cycle position of tubers treated with DMN. […] Therefore, primers were determined by isolating a longer DNA sequence from the DFCI-Potato Gene Index corresponding to the microarray oligonucleotide and searching that sequence for primers using the Applied Biosystems Primer Express 3.0 software (www.appliedbiosystems.com). cDNA template for QT-PCR was prepared from mRNA isolated from potato meristems treated with DMN for three days as described above. PCR reactions were run on a StepOne™ Real Time System and analyzed using Step One Software v2.0 (www.appliedbiosystems.com) to determine ΔΔCT values on a log10 scale. […]
# [2] = system: potato meristem transcripts; experiment: Microarray transcriptional profiling (POCI 44K oligo array) of potato meristems; type: cell-based, potato (Russet Burbank)
# Method: On the day of treatment, tubers were transferred from 3° to 20° C. and were immediately washed in running tap water. After drying at room temperature in the dark, the tubers were placed into 4 L airtight containers. A beaker containing about 5 g of activated charcoal was placed in the chamber containing the control tubers prior to sealing (Control). DMN (0.15 mL liquid) was placed on cotton wool in a beaker and sealed in the treatment chamber (DMN3 days). The chambers were incubated in the dark at 20° C. for three days. At this time tubers were removed and the lateral meristems were isolated using a curette with the aid of a dissecting microscope. […] One group of DMN-treated tubers was incubated for a further two days in air (dark, 20° C.) prior to meristem isolation (DMN3 days+2).
# RNA was isolated from frozen meristems by grinding to a fine powder in a mortar and pestle followed by isolation and purification using a Ribopure Kit (www.ambio.com). RNA was quantified using a BioSpec nano and quality was assessed by gel electrophoresis and visualization of ribosomal RNA. Total RNA (500 ng) was denatured in the presence of a T7 promoter primer and cDNA was synthesized using reverse transcriptase. The cDNA was used as a template for in vitro transcription by synthesis with T7RNA polymerase, which amplified target material and incorporated cyanine 3-labeled CTP. The labeled cRNA was purified using spin columns and quantified using a spectrophotometer. […] Probe generation and hybridization to the array were conducted through a contract to Gene Logic (www.genelogic.com). Twelve samples were used to probe against the POCI array, three samples from eco-dormant meristems (harvested directly from 3° C. storage), three samples from meristems isolated from tubers treated with DMN for three days in a closed container, three samples treated with water for three days in a closed container, three samples treated with DMN for three days and then exposed to air for two days. The three samples for each treatment were biological replicates.
# Analysis of the microarray was conducted in two stages; total array data was examined using a linear model and the software limma, and pathway analysis was conducted by linking the potato sequences to the Arabidopsis thaliana. […] The data was corrected for background and normalized between arrays using a loess method. […] The use of limma for analysis of oligo arrays was accomplished by analyzing data from a single emission channel.
# The array data was transformed to log base 2 and normalized between arrays using default parameters in GeneMathsXT software package (www.applied-maths.com). […] Pathway Studio 8.0 (www.ariadnegenomics.com) was utilized to determine metabolic changes that were associated with DMN treated for three days compared to controls.
# [3] = system: sprouting root and tuber crops, bulb crops, ornamentals; experiment: Effect on sprouting crops; type: in vivo
# potato tubers [4] = conditions: Beveridge et al. 1981; cited from earlier work
# potato tubers [5] = conditions: J. Zalewsky, personal communication; cited from earlier work
# berries = conditions: freshly harvested berries; copending application; cited from earlier work
# ABA levels = conditions: Campbell et al. 2010; cited from earlier work
# [6] = DMN three days vs three-day control
smiles,measurement,setting,value
"Cc1ccc(C)c2ccccc12 [DMN, 1,4-dimethylnaphthalene]",Thymidine incorporation (labeled thymidine taken up incorporated into DNA),"potato meristems; Run 1, control 14.3 ± 2.1%",6.7 ± 0.4%
same,Thymidine incorporation (labeled thymidine taken up incorporated into DNA),"potato meristems; Run 2, control 12.5 ± 0.2%",6.5 ± 1.0%
same,reduction in thymidine incorporation into DNA,"potato meristems; non-dormant tuber meristems following DMN treatment, vs control",about 50%
same,"transcripts for CDKB1, CYCD3, PCNA, and UTPase (G1/S-phase or early S-phase)",[1],decreased
same,"transcripts for KRP1, KRP2, MYC2, WRKY, and CYCA3",[1],elevated
same,expression of transcripts that encode cyclin or cyclin-like proteins,[2]; [6],decreased expression
same,transcripts assigned to water regulation and responses to salt stress,[2]; [6],increased
same,expression of the Cln1 homolog CYCA1,[2]; DMN treatment,decrease
same,Nucleoside diphosphate kinase (NDPK) transcript,[2]; exposure to DMN,down regulated
same,effect on sprouting root and tuber crops,"[3]; beet, carrot, cassaca, dasheen (taro), ginger, ginseng, horseradish, parsnip, pototato, sweet potato, turnip, yam",effective
same,effect on sprouting ornamentals,[3]; flowering bulbs,effective
same,effect on sprouting bulb crops,"[3]; garlic, leek, onion, shallot",effective
same,premature sprouting of potato tubers,potato tubers [4],shown to prevent premature sprouting
same,turgidity and tuber fresh weight,potato tubers [5],increase in turgidity and maintenance of tuber fresh weight
same,hydration and shelf life of berries,berries,maintain improved hydration
same,ABA levels over control tissues,ABA levels,did not result in an increase in ABA levels
